Inconclusive results and toxic doses are left out. The calls were made as follows: active = survival T/C of 150% or more; inactive = T/C below 125% in these data.
Tested on: CD2F1 mice, L1210 leukemia ip, survival T/C
Test: NCI In Vivo Anticancer Drug Screen. Data for tumor model L1210 Leukemia (intraperitoneal) in CD2F1 (CDF1) mice
Conditions: endpoint: mean survival time, higher = longer survival
Procedure, shortened: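 Vehicle-treated tumor-bearing mice served as controls (C) for compound-treated mice (T). Reported figure is T divided by C.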

Measured: T/C

C=CC[N+]12CC=C3COC(=O)C(C)(O)C(C)(O)C(C)C(=O)OC(CC1)C32 (configuration not stated)
inactive: dose: 100.0 mg/kg/injection, schedule: Q04DX003 (ip), vehicle: Klucel (hydroxypropylcellulose) (HPC) 101 % of control | dose: 200.0 mg/kg/injection, schedule: Q04DX003 (ip), vehicle: Klucel (hydroxypropylcellulose) (HPC) 90 % of control | dose: 400.0 mg/kg/injection, schedule: Q04DX003 (ip), vehicle: Klucel (hydroxypropylcellulose) (HPC) 93 % of control

Cc1cc2c(cc1C)C(=O)c1ccccc1C2=O
inactive: dose: 50.0 mg/kg/injection, schedule: Q01DX009 (ip), vehicle: saline 102 % of control | dose: 100.0 mg/kg/injection, schedule: Q01DX009 (ip), vehicle: saline 93 % of control | dose: 100.0 mg/kg/injection, schedule: Q04DX003 (ip), vehicle: saline 97 % of control | dose: 200.0 mg/kg/injection, schedule: Q04DX003 (ip), vehicle: saline 89 % of control
